Data: ChEMBL document CHEMBL1201862, “PubChem BioAssay data set” (2004)
Calls of active or inactive are those of the source.

How the values were obtained:
[1] = biological target: T1, Caspase-3 (Homo sapiens, UniProt P42574); type: functional;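 also: Dose-response selectivity test against caspase-3 for candidate inhibitors of sentrin-specific proteases (SENPs)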
T1 sequence (P42574 whole entry): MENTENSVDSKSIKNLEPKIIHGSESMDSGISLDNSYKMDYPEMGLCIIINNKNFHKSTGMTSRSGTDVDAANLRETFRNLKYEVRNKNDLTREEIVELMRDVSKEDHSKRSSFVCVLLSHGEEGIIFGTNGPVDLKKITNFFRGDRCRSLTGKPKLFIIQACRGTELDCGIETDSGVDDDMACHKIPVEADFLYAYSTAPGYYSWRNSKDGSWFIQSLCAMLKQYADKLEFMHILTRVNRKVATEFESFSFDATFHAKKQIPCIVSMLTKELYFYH

[2] = NIH-3T3 fibroblast cytotoxicity, dose response, cytotoxicity control, cell-based, fluorescence, Alamar Blue, secondary assay (AID 2327); type: functional;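 also: NIH-3T3 mouse fibroblasts cultured with fluconazole at 8 µg/mL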
[3] = C. albicans growth with fluconazole, confirmation, fluorescence, retest (AID 2467); type: functional, cell-based
[4] = biological target: Heat shock protein HSP 90-alpha (Homo sapiens, UniProt P07900); assay: Luminescence-based dose response biochemical high throughput screening assay for inhibitors of the Heat Shock Protein 90 (HSP90). [Related pubchem assays: 1831 (Summary AID.), 1846 (Confirmation screen.), 1789 (Primary screen.)]
[5] = biological target: Serine/threonine-protein phosphatase PP1-alpha catalytic subunit (Homo sapiens, UniProt P62136); assay: PP1 phosphatase inhibitors, dose response, biochemical, fluorescence (AID 2394)
[6] = tested on: Streptococcus; assay: Group A Streptococcus viability loss, dose response, counter-screen for streptokinase expression inhibitor project, luminescence, BacTiterGlo (AID 1915); type: functional, organism-based;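 also: potency for reduction of bacterial viability or growth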
[7] = biological target: T2, Apoptotic protease-activating factor 1 (Homo sapiens, UniProt O14727); type: functional
T2 sequence (O14727 whole entry): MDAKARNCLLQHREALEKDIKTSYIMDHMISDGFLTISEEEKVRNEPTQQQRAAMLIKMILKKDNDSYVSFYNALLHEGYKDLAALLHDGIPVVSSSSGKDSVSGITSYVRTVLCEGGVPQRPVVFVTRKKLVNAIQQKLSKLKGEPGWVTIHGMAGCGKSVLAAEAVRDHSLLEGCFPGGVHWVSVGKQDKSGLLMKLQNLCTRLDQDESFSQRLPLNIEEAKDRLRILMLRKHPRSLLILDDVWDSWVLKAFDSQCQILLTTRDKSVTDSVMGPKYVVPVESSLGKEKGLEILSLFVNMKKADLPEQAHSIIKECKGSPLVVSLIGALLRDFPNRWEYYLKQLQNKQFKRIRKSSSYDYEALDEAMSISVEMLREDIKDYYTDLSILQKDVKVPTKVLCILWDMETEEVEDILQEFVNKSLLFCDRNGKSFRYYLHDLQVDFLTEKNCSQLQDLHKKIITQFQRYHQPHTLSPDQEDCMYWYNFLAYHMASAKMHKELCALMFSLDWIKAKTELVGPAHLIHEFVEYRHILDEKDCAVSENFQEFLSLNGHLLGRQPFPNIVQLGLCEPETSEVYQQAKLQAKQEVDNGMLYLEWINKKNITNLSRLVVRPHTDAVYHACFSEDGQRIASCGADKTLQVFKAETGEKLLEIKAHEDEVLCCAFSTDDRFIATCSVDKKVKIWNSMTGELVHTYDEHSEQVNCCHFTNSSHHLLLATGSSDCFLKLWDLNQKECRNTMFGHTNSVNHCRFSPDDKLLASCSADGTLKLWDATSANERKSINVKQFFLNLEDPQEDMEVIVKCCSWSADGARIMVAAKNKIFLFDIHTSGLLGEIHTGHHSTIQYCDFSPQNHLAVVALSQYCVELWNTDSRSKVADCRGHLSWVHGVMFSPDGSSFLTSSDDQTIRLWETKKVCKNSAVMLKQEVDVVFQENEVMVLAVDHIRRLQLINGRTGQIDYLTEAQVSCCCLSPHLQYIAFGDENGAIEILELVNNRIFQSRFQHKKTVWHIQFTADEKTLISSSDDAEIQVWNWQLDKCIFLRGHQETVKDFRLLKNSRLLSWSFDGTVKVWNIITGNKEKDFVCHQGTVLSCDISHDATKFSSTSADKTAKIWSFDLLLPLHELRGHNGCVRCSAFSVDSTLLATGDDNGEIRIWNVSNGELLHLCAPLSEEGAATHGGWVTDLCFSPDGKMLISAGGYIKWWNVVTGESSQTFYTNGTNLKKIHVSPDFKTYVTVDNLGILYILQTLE

[8] = biological target: Photoreceptor-specific nuclear receptor (Homo sapiens, UniProt Q9Y5X4); type: functional, cell-based;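 also: CHO-S cells with Gal4-NCOR and VP16-NR2E3 two-hybrid luciferase reporter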
[9] = biological target: Genome polyprotein (dengue virus type 2, UniProt P29990); assay: Dengue-2 NS5 methyltransferase inhibitors, primary screen, biochemical, confirmation dose response (AID 588689); type: functional
[10] = biological target: T3, Zinc finger protein mex-5 (Caenorhabditis elegans, UniProt Q9XUB2); assay: MEX-5/TCR-2 RNA interaction inhibitors, dose response, biochemical, C. elegans, fluorescence polarization (AID 1960)
T3 sequence (Q9XUB2 whole entry): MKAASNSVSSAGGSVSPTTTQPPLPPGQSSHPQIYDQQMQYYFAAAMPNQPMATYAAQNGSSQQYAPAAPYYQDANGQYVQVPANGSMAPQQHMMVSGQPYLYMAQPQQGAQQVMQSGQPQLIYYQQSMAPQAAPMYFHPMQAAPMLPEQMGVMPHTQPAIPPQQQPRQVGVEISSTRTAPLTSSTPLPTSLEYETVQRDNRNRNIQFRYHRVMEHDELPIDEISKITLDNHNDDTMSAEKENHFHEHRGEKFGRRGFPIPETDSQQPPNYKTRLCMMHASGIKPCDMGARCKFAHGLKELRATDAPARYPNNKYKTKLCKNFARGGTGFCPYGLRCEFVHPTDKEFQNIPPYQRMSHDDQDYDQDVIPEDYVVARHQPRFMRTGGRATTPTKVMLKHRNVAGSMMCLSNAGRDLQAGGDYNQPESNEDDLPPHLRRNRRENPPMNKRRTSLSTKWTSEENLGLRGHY

[11] = tested on: Streptococcus sp. 'group A'; assay: growth inhibition of control SK(-) GAS strain, dose response, counter-screen for streptokinase expression inhibitor project, luminescence, kanamycin, BacTiterGlo, confirmation (AID 1900); type: functional, organism-based

Sequence of Genome polyprotein (P29990 2492-3391 limits assumed): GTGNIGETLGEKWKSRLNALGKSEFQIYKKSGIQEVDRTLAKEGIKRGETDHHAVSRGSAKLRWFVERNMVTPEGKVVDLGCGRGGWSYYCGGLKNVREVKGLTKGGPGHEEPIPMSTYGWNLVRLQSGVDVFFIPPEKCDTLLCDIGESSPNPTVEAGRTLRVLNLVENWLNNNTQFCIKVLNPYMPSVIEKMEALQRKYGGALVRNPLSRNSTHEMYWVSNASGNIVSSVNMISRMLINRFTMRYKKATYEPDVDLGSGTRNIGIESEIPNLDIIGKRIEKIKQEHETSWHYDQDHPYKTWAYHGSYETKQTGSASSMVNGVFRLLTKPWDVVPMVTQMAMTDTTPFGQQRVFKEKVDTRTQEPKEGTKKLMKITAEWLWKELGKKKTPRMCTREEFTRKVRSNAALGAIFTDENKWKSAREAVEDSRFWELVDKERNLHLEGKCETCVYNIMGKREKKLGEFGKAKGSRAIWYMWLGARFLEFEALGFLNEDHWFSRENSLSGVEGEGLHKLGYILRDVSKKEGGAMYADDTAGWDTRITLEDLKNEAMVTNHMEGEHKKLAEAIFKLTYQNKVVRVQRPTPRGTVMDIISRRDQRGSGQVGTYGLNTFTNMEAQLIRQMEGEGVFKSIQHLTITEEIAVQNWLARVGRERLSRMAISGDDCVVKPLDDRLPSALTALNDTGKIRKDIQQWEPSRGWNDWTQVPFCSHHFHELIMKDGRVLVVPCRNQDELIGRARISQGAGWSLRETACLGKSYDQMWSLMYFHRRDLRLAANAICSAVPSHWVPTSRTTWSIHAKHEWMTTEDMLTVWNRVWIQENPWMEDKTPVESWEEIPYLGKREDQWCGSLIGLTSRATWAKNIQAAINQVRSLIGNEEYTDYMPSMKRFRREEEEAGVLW
Sequence of Photoreceptor-specific nuclear receptor (Q9Y5X4 whole entry, the tested form may be a part): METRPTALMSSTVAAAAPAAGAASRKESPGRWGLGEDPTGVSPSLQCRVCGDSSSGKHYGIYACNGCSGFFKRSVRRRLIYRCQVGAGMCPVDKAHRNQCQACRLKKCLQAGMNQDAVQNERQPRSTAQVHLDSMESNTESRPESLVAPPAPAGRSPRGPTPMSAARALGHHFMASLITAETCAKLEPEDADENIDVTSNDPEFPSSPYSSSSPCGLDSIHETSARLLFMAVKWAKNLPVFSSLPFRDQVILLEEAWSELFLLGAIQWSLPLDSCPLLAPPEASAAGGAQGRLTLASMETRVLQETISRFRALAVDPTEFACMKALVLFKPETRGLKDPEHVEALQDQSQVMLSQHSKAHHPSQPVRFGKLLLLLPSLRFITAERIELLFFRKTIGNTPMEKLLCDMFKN
Sequence of Serine/threonine-protein phosphatase PP1-alpha catalytic subunit (P62136 whole entry): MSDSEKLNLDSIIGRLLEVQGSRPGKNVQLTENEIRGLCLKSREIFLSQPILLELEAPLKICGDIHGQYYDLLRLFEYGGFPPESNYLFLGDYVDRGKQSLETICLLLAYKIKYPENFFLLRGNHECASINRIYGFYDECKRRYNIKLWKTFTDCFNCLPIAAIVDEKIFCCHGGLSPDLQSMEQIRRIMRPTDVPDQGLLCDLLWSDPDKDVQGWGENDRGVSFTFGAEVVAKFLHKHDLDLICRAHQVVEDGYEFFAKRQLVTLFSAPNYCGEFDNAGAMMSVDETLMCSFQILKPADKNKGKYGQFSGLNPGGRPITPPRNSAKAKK

For `Cc1ccc(NC2=CC(=O)C(=O)c3ccccc32)cc1`, which IC50 [1] is on record?
The IC50 was 31 µM (active).

What about the EC50 [2] of the same compound?
The EC50 was 20.5 µM (active).

What about the EC50 [3] of the same compound?
Its EC50 is 0.451 µM (active).

For `O=C(O)c1ccc(S(=O)(=O)/N=C2\C=C(Nc3ccccc3F)C(=O)c3ccccc32)cc1`, which IC50 [4] is on record?
The IC50 was 0.638 µM (active).

And the IC50 [5]?
Its IC50 is 15.5 µM (not active).

And the EC50 [6]?
The EC50 was 4.05 µM (active).

What about the IC50 [7] of the same compound?
Its IC50 is 3 µM (active).

And the IC50 [8]?
Its IC50 is 12.2 µM (inactive).

And the IC50 [9]?
The IC50 was 11.2 µM (active).

And the EC50 [10]?
Its EC50 is 60.8 µM (active).

What about the EC50 [11] of the same compound?
Its EC50 is 5.74 µM (active).
